Assay results as given in ChEMBL document CHEMBL1201862, “PubChem BioAssay data set” (2004).
Calls of active or inactive are those of the source.

Legend:
[1] = target: T1, RNA-binding protein pos-1 (Caenorhabditis elegans, UniProt G5EF15); test: inhibitors of POS-1/mex-3 RNA binding, dose response, biochemical, fluorescence polarization (AID 1964);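 note: purified POS-1 fused to maltose binding protein made in E. coli; potency of compounds blocking POS-1 binding to fluorescent RNA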
T1 sequence (G5EF15 whole entry): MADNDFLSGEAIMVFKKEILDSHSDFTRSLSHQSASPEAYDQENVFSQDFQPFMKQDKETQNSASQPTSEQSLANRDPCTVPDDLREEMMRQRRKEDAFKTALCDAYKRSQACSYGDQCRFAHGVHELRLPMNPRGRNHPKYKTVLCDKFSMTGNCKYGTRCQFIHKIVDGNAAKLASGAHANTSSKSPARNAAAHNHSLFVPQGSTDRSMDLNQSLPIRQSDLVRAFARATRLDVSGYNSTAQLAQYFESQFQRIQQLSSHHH

[2] = target: T2, Endoribonuclease toxin MazF (Escherichia coli K-12, UniProt P0AE70); test: MazF toxin RNase activators, dose response, biochemical, fluorescence, single-stranded RNA substrate, uHTS hits (AID 588481); format: functional
T2 sequence (P0AE70 whole entry): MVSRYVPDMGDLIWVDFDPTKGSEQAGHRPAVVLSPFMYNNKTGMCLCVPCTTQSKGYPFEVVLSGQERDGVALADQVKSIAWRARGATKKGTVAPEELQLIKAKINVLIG

[3] = target: T3, Zinc finger protein mex-5 (Caenorhabditis elegans, UniProt Q9XUB2); test: MEX-5/TCR-2 RNA interaction inhibitors, dose response, biochemical, C. elegans, fluorescence polarization (AID 1960)
T3 sequence (Q9XUB2 whole entry): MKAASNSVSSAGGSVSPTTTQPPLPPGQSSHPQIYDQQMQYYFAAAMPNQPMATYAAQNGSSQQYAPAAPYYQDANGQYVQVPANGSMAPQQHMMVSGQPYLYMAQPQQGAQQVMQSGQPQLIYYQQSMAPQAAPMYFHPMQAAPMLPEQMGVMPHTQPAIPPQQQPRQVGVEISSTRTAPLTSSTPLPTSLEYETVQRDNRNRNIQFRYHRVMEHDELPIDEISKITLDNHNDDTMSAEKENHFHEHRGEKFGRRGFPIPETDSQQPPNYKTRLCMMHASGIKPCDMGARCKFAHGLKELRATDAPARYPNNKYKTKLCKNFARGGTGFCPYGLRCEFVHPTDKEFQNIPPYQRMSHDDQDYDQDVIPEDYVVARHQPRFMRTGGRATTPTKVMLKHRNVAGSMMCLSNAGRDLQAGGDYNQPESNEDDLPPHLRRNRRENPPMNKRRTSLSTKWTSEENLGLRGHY

[4] = target: T2, Endoribonuclease toxin MazF; test: fluorescent RNA oligo signal without MazF, dose response, counter-screen for MazEF activator project, biochemical, fluorescence, single-stranded RNase substrate (AID 588502); format: functional
Caspase-3 = target: T4, Caspase-3 (Homo sapiens, UniProt P42574); test: SAR Analysis of small molecule inhibitors of Sentrin-specific proteases (SENPs) using a Caspase-3 Selectivity assay. [Related pubchem assays (depositor defined):AID2540, AID2599, AID434973, AID489001]; format: functional
T4 sequence (P42574 whole entry): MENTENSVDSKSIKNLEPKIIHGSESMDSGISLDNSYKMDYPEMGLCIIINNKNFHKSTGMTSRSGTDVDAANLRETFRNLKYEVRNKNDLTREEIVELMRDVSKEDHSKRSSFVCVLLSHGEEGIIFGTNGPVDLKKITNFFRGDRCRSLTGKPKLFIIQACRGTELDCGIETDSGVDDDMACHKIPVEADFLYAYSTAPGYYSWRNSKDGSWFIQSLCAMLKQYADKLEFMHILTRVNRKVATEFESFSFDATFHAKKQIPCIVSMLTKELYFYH

[5] = target: T5, Sentrin-specific protease 7 (Homo sapiens, UniProt Q9BQF6); test: SENP7 protease inhibitors, SAR follow-up, biochemical, luminescence (AID 504497); format: functional
T5 sequence (Q9BQF6 whole entry): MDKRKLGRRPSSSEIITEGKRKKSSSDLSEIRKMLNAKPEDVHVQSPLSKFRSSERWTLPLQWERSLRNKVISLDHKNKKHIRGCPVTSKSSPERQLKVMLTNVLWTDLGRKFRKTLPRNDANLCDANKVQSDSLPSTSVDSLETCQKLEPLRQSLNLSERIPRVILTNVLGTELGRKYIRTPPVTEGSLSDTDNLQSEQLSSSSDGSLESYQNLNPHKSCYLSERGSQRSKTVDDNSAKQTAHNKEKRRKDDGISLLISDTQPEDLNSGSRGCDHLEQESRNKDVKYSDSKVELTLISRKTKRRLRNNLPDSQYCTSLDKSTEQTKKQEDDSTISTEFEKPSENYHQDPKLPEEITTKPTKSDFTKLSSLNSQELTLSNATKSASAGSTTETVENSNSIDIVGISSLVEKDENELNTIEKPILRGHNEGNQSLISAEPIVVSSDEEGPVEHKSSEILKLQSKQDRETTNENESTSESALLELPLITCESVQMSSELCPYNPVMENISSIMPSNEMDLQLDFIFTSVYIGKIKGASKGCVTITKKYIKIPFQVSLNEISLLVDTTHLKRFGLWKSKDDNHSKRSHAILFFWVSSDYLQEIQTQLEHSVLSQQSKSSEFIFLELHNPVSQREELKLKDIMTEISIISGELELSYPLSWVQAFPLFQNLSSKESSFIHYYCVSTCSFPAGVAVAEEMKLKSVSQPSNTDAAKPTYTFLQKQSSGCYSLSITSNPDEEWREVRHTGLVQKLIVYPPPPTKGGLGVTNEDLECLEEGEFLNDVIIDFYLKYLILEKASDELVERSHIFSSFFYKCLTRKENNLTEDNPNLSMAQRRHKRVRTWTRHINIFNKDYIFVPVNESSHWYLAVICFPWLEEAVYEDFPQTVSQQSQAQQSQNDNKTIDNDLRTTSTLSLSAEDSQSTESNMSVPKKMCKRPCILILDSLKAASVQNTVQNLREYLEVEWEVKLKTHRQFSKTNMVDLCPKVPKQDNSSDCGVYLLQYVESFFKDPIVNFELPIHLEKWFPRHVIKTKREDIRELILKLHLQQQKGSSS

[6] = target: T6, Sentrin-specific protease 6 (Homo sapiens, UniProt Q9GZR1); test: SAR Analysis of small molecule inhibitors of Sentrin-specific protease 6 (SENP6) using a Luminescent assay. [Related pubchem assays (depositor defined):AID2582, AID2599]; format: functional
T6 sequence (Q9GZR1 whole entry): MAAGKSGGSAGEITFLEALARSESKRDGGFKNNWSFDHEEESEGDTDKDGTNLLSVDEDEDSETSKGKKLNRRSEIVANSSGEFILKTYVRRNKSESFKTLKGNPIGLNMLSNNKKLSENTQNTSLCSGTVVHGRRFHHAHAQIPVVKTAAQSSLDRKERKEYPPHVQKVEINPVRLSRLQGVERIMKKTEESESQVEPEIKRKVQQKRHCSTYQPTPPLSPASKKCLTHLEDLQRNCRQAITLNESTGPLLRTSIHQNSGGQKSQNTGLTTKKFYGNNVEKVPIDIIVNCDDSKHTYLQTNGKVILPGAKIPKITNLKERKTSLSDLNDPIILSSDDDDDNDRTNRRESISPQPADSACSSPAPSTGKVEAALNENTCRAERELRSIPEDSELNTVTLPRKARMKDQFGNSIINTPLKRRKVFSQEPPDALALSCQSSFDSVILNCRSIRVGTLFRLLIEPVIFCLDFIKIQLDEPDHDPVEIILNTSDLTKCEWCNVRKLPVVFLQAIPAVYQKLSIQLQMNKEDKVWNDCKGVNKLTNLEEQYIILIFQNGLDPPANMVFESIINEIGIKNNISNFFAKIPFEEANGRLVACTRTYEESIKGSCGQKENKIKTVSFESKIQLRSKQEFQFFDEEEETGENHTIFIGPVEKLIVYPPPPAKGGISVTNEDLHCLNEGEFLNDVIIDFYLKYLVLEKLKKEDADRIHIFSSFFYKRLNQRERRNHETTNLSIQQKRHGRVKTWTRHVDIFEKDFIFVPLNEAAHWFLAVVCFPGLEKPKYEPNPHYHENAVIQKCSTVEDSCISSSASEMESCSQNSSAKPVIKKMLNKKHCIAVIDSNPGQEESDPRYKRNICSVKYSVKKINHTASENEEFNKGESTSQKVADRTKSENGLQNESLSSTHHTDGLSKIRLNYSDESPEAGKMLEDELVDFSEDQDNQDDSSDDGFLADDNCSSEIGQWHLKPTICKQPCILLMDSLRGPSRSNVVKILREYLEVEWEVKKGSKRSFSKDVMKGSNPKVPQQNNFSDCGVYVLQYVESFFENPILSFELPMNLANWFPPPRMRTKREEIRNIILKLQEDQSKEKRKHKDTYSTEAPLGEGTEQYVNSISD

[7] = target: T7, Sentrin-specific protease 8 (Homo sapiens, UniProt Q96LD8); test: SENP8 protease inhibitors, SAR follow-up, biochemical, luminescence (AID 504501); format: functional
T7 sequence (Q96LD8 whole entry): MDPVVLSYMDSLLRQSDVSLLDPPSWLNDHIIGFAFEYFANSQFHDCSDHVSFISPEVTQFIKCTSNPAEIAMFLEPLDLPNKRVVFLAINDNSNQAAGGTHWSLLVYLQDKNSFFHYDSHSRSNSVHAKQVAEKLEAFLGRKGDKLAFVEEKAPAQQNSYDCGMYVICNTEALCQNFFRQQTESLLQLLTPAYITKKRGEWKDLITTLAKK

BJ [8] = test: cytotoxicity toward BJ-TERT-LT-ST fibroblasts, dose response, cell-based, RAS-independent, luminescence (AID 1935); format: functional; conditions: Homo sapiens;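 note: BJ fibroblasts immortalized with TERT plus LT and ST oncogenes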
BJ [9] = test: cells; format: functional, cell-based; conditions: Homo sapiens
[10] = cytotoxicity toward DRD oncogenic fibroblasts, dose response, cell-based, non-viral oncogenic, luminescence (AID 1934); format: functional; conditions: Homo sapiens
BJ [11] = test: cytotoxicity toward Ras-transformed BJeLR fibroblasts, dose response, cell-based, alamar blue fluorescence, cherrypicked samples (AID 2631); format: functional; conditions: Homo sapiens;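 note: confirmatory dose-response assay in RAS-dependent BJ fibroblasts engineered with TERT, LT and ST, with cytotoxicity read by fluorescence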
BJ [12] = test: cytotoxicity toward BJ-TERT fibroblasts, dose response, cell-based, RAS-independent, luminescence (AID 1933); format: functional; conditions: Homo sapiens

Compound	IC50 (Caspase-3)	IC50 [5]	IC50 [6]	IC50 [7]	also measured
CCCCOc1cccc(C2C(C(=O)c3ccc(C)o3)=C(O)C(=O)N2c2nnc(C)s2)c1 (stereo unspecified)					EC50 [1]: 102 µM (active); EC50 [2]: > 99 µM (inactive); EC50 [3]: 77.4 µM (active); EC50 [4]: 20.4 µM (inactive)
Cc1cccc(N/N=C/c2c[nH]c3ccccc23)c1	> 99 µM (inactive)	18 µM (active)	32 µM (active)	34.5 µM (active)	
CN(C)c1nc(NCc2ccccc2)nc(N/N=C/c2ccc(Br)cc2)n1	> 99 µM (inactive)	> 99 µM (inactive)	> 99 µM (inactive)	> 99 µM (inactive)	
O=[N+]([O-])c1ccccc1CNCCc1c[nH]c2ccccc12	> 99 µM (inactive)	> 99 µM (inactive)	> 99 µM (inactive)	> 99 µM (inactive)	
CSc1cc(-c2ccccc2)n(Cc2ccccc2Cl)c(=O)c1C#N					EC50 (BJ [8]): 33.6 µM (inconclusive); EC50 (BJ [9]): 43.8 µM (active); EC50 [10]: 3.67 µM (active); EC50 (BJ [11]): 1.92 µM (active); EC50 (BJ [12]): 10.1 µM (inconclusive)
